Broadly, the half-life is the time in which the quantity being followed falls by half. As a reminder, the IC50 is the concentration that inhibits the measured activity by half. Low values mean higher potency, high ones lower potency.

Consider nine molecules from ChEMBL document CHEMBL1136370, “Structure-activity relationship on human serum paraoxonase (PON1) using substrate analogues and inhibitors” (Bioorg Med Chem Lett, 2003).

One series deals with PON1. As to the kind of experiment: Time taken for 50% to be consumed by serum PON1 was determined. It is filed as ADME. To be noted: human.
Series [1] addresses T1, Serum paraoxonase/arylesterase 1 (Homo sapiens, UniProt P27169). As to the kind of experiment: Inhibitory activity against human serum paraoxonase (PON1); Not active.
Series [2] in a line: Time taken for 50% to be consumed by serum PON1; NH is Not hydrolysed. The class given is ADME. As to conditions: human; call rule not given here.
The target of series [3] is T1, Serum paraoxonase/arylesterase 1. Put plainly: Inhibitory activity against human serum paraoxonase (PON1).

T1 sequence (P27169 whole entry): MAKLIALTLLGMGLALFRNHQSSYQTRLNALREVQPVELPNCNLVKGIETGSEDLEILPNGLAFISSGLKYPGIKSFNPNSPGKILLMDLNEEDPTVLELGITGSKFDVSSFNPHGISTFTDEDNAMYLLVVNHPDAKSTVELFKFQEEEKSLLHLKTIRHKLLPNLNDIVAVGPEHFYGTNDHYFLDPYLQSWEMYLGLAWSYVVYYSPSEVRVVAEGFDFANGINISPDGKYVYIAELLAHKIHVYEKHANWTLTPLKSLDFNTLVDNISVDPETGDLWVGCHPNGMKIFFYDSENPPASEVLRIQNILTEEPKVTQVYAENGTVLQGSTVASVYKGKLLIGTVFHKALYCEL

In the series with PON1, `CC(=O)Oc1ccc(N)cc1` had a half-life of 20 min. The half-maximal inhibitory concentration (IC50) result in series [1] is recorded as “Not Active”.

On to `COc1ccc(OC(C)=O)cc1`, for which, in the series on PON1, the half-life was found to be 20 min. The IC50 entry in series [1] is “Not Active”.

Consider `CCOP(=O)(OCC)Oc1ccc(N)cc1`, for which the T1/2 entry in series [2] is reported as “Not hydrolysed”. Further, the IC50 in series [3] was found to be 1.28 mM.

With `CC(=O)Oc1ccc([N+](=O)[O-])cc1` [4-NITROPHENYL ACETATE], in the series with PON1, the half-life was found to be 3.5 min. In addition, the IC50 result in series [1] was “Not Active”.

With `CC(=O)Oc1ccccc1` [ACETIC ACID PHENYL ESTER], in the series with PON1, the half-life came out at 1.5 min. Besides, the IC50 entry in series [1] was “Not Active”.

The molecule `CCOP(=O)(OCC)Oc1ccc([N+](=O)[O-])cc1` [PARAOXON] yielded a half-life in the series on PON1 of 1460 min. Moreover, the IC50 result in series [1] was “Not Active”.

On to `O=P(O)(O)Oc1ccccc1` [PHENYL DIHYDROGEN PHOSPHATE], for which the T1/2 entry in series [2] was “Not hydrolysed”. This molecule came in with an IC50 in series [3] of 3.25 mM.

Take `CCOP(=O)(OCC)Oc1ccccc1` [PHOSPHORIC ACID DIETHYL ESTER PHENYL ESTER]: the T1/2 result in series [2] was “Not hydrolysed”. Besides, half-maximal inhibition in series [3] (IC50) required 3.27 mM.

Regarding `O=[N+]([O-])c1ccc(OP(=O)(O)O)cc1` [p-NITROPHENYLPHOSPHATE], the T1/2 entry in series [2] was “Not hydrolysed”. In series [3], this molecule had an IC50 of 18.5 mM.
